Test results as given in patent US20120207856A1, “MSH3 Expression Status Determines the Responsiveness of Cancer Cells to the Chemotherapeutic Treatment with PARP Inhibitors and Platinum Drugs” (Baylor Research Institute, priority 2011, published 2012).
Read-outs that look alike come from different tables or passages of the source.

Assays:
HT29 cells = assay: Clonogenic survival after transient MSH3 siRNA transfection; format: cell-based, human; conditions: HT29 cells treated with MSH3 siRNA versus non-targeted siRNA; FIGS. 3E & 3F
[1] = test system: tumors occurring in MSH2-null mice; conditions: MSH2-null mice versus mice with MSH2 G674D mutations; cited from earlier work
HHUA cells = conditions: MSH3-deficient HHUA versus MSH3-proficient HHUA complemented with chromosome 5; cited from earlier work
HCT116+3+5 and G5 cells [2] = assay: Clonogenic survival after MLH1 siRNA transfection; format: cell-based, human
[3] = test system: HCT116, HCT116+3, HCT116+3+5, G1, G2 and G5 cells; assay: Clonogenic survival assay in isogenic HCT116-derived cell lines; format: cell-based, human
Procedure: (§1) Cell lines and cell culture—The human colon cancer cell lines HCT116, HCT116+ch.3 (HCT116+3), HCT116+ch.3+ch.5 (HCT116+3+5) have been described previously (10,23). HCT116+3+5 cells were stably transfected with a tetracycline-regulated retroviral vector, the TMP (Open Biosystems, Huntsville, Ala.) that encodes shRNA against MSH3. Stable MSH3-deficient clones G1, G2 and G5 were isolated (see results and (23)). HCT116, HCT116+3, and HCT116+3+5 cells were grown in IMDM (Invitrogen, Rockville, Md.) with 10% fetal bovine serum. The G1, G2 and G5 cells were maintained in IMDM with 10% fetal bovine serum and 0.6 μg/ml of puromycin. To turn off the expression of MSH3 shRNA, 1 μg/ml of doxycycline was added to the culture medium.
Clonogenic survival assay—Two hundred cells were seeded in each well of a six-well plate. For the measurement of the cytotoxicity caused by cisplatin or oxaliplatin, the cells were treated with the drugs for 24 hours once the cells were attached to the plate. For the measurement of the cytotoxicity caused by olaparib, cells were continuously treated with the drug during the experiments. After 8-10 days, the number of colonies (colonies with >50 cells) were counted, and the relative change in clonogenic survival of drug-treated versus untreated cells was determined.

HCT116+3+5 cells = assay: Clonogenic survival after transient MSH3 siRNA transfection; format: cell-based, human; conditions: MSH3 siRNA versus non-targeted siRNA; cisplatin 5 μM and 10 μM, oxaliplatin 2 μM and 5 μM, 48 hours after transfection; FIGS. 3B & 3C
MSH3 = assay: Western blot analysis of MSH3 expression; format: cell-based, human; conditions: G1, G2 and G5 clones; doxycycline 1 μg/ml; densitometry; FIGS. 1A & 1B
Procedure: as §1
Western blot analysis—Proteins from cell lysates were prepared, separated on the SDS-PAGE and transferred to PVDF membranes as described previously (31). Anti-hMSH3 mouse monoclonal antibody (dilution; 1:250, Clone 52, BD Pharmingen, San Jose, Calif.), anti-hMLH1 mouse monoclonal antibody (1:200, G168-728, BD Pharmingen) and anti-β-actin antibody (1:10000, Clone AC-15, Sigma-Aldrich) were used as primary antibodies for the detection of specific proteins. Goat anti-mouse antibody (1:3000, sc-2005, Santa Cruz Biotechnology, Santa Cruz, Calif.) was used as a secondary antibody. […]

53BP1 = assay: Immunofluorescence staining for 53BP1 foci; format: cell-based, human; conditions: MSH3-deficient G5 cells after treatment; 5 μM for 6 hours, analyzed after 48 hours; FIGS. 5C & 5D
Procedure: (§2) Immunofluorescence staining—Ten thousand cells were grown on glass coverslips in a 12-well plate. The cells were fixed with 4% paraformaldehyde (pH 7.5) in PBS for 15 minutes, permeabilized with 0.3% Triton X-100 for five minutes, and then blocked with 10% goat serum (Invitrogen, Carlsbad, Calif.) for one hour. The cells were subsequently incubated with an anti-active caspase-3 antibody (1:500, G748, Promega, Madison, Wis.) an anti-phosphorylated H2AX (pH2AX) antibody (1:5000, JBW301, Millipore Corporation, Billerica, Mass.), or an anti-53BP1 antibody (1:600, ab21083, Abcam, Cambridge, Mass.) for one hour, followed by a secondary antibody (1:800, Alexa Fluor 555 goat anti-mouse or anti-rabbit antibody, Invitrogen) for 40 minutes. Prolong Gold with DAPI (Invitrogen) was used in mounting the medium. The images were obtained using AxioSkop2 multichannel epifluorescence microscope equipped with the AxioVision software (Carl Zeiss, Thornwood, N.Y.).

HCT116+3+5 and G1 cells = assay: Cell cycle analysis by flow cytometry; format: cell-based, human; conditions: MSH3-deficient versus MSH3-proficient cells
Procedure: Cell cycle analysis—One million cells were seeded in 10 cm plates. Once attached, the cell lines were treated with oxaliplatin for 24 hours. After an additional 48 hours, cells were washed twice with cold PBS, fixed in cold 70% ethanol at −20° C. overnight or for several days. The ethanol fixed cells (2×10^6) were subsequently washed with PBS twice and incubated with 300 μl of PBS and 0.15% RNase A for 15 minutes at 37° C. The cells were stained with 75 μg/ml propidium iodide for 30 minutes and then analyzed for DNA content using the FACSCantoII flow cytometer (BD Biosciences, San Jose, Calif.). Cell cycle data was analyzed by the Flowjo software (Tree Star, Ashland, Oreg.).

HCT116+3+5 and G5 cells [4] = assay: Proliferation assay (BrdU incorporation); format: cell-based, human; conditions: MSH3-deficient cells; FIG. 2G
Procedure: Proliferation assay—The proliferation index was measured by bromodeoxyuridine (BrdU) incorporation in HCT116+3+5 and G5 cells, 48 hours after the initial 24 hour treatment with cisplatin or oxaliplatin (Cell Proliferation ELISA, BrdU, Roche Diagnositics, Indianapolis, Ind.). Experiments were performed in triplicate and data was obtained from three or four independent experiments.

HCT116+3+5 and G5 cells [5] = assay: Immunofluorescence staining for active caspase-3; format: cell-based, human; conditions: MSH3-deficient cells, FIG. 2H
Procedure: as §2

pH2AX = assay: Immunofluorescence staining for pH2AX foci; format: cell-based, human
Procedure: as §2

MSH3-deficient cells = assay: Sensitivity of MSH3-deficient cells to SN-38 (data not shown); format: cell-based

## N.N.[Cl][Pt][Cl] [cisplatin]
HT29 cells
  sensitivity (clonogenic survival): more sensitive
[1]
  resistance of tumors: more resistant
HHUA cells
  sensitivity: did not differ
HCT116+3+5 and G5 cells [2]; G5 versus HCT116+3+5, MLH1 down-regulated by siRNA, 2 μM and 5 μM, FIGS. 4C & 4D
  sensitivity (clonogenic survival): more sensitive
[3]; G1 and G2 clones, data not shown
  sensitivity (clonogenic survival): behaved similarly to G5
[3]; G5 cells with versus without doxycycline, 5 μM, FIG. 2B
  sensitivity (clonogenic survival) on restoration of MSH3 expression: desensitized
[3]; HCT116 versus HCT116+3 cell lines, FIG. 2A
  sensitivity (clonogenic survival): No significant differences
[3]; MSH3-deficient G5 clone versus parental HCT116+3+5, FIG. 2A
  sensitivity (clonogenic survival): more sensitive
[3]; MSH3-proficient HCT116+3+5 versus HCT116 and HCT116+3, FIG. 2A
  resistance (clonogenic survival): higher resistance
HCT116+3+5 cells
  susceptibility (clonogenic survival): more susceptible

## O=C(c1cc(Cc2n[nH]c(=O)c3ccccc23)ccc1F)N1CCN(C(=O)C2CC2)CC1 [olaparib]
[3]; MSH3-deficient G5 versus MSH3-restored G5 cell line, 2 μM, FIG. 6A
  sensitivity (clonogenic survival): more sensitive

## C[C@H]1c2cccc(O)c2C(=O)C2=C(O)[C@]3(O)C(=O)C(C(N)=O)=C(O)[C@@H](N(C)C)[C@@H]3[C@@H](O)[C@@H]21 [doxycycline]
MSH3
  MSH3 expression relative to parental HCT116+3+5: 40-60%

## O=C1[O][Pt]2([NH][C@@H]3CCCC[C@H]3[NH]2)[O]C1=O [oxaliplatin]
HT29 cells
  sensitivity (clonogenic survival): more sensitive
HHUA cells
  sensitivity: did not differ
53BP1
  levels of 53BP1: Sustained levels
HCT116+3+5 and G1 cells; FIG. 2E
  degree of cell growth inhibition (decrease in S-phase population): significantly higher
HCT116+3+5 and G1 cells; FIG. 2F
  levels of apoptosis (increase in sub-G1 population): significantly higher
HCT116+3+5 and G5 cells [2]
  sensitivity (clonogenic survival): more sensitive
HCT116+3+5 and G5 cells [4]
  cell proliferation (BrdU incorporation): decreased
[3]; MSH3-deficient HCT116, HCT116+3 and G5 versus parental HCT116+3+5, FIG. 2C
  sensitivity (clonogenic survival): significantly more sensitive
[3]; MSH3-deficient cells (G1, G2, G5) with versus without doxycycline 1 μg/ml, FIG. 2D
  sensitivity (clonogenic survival) on restoration of MSH3: restoration of oxaliplatin insensitivity
HCT116+3+5 and G5 cells [5]
  apoptotic fraction (anti-active caspase-3 positive cells): increased
HCT116+3+5 cells
  susceptibility (clonogenic survival): more susceptible
pH2AX; MSH3-deficient G5 versus MSH3-restored G5 and HCT116+3+5, 48 and 72 hours, FIGS. 5A & 5B
  rate of reduction in the number of pH2AX foci-positive cells: lower rate of reduction
pH2AX; MSH3-proficient versus -deficient cell lines, 5 μM for 6 hours
  number of pH2AX foci-positive cells before and after treatment: no differences

## CCc1c2c(nc3ccc(O)cc13)-c1cc3c(c(=O)n1C2)COC(=O)[C@]3(O)CC [SN-38]
MSH3-deficient cells
  sensitization by MSH3 deficiency: sensitized
